# In the Bradley open melting point set (2014):
# “And” between values parts separate entries of the source, which are not always exact repeats. Identical values can stand only once.
row,Structure (SMILES),melting point
1,O=C(O)c1cc2ccccc2o1 [benzo[b]furan-2-carboxylic acid],194 °C
2,O=C(Oc1ccc([N+](=O)[O-])cc1)c1ccccc1 [4-nitrophenyl benzoate],143 °C
3,Oc1ccc(OCc2ccccc2)cc1 [4-benzyloxyphenol],120 °C
4,"C[C@@H]1C[C@H]1C (relative stereo) [trans-1,2-dimethylcyclopropane]",-150 °C
5,O=C(O)Cc1cccc(I)c1 [3-iodophenylacetic acid],130 °C
6,CC(=O)c1ccco1 [1-(2-Furyl)ethanone],29.5 °C
7,N#Cc1ccc(F)cc1[N+](=O)[O-] [4-fluoro-2-nitrobenzonitrile],71 °C
8,CCCCCCCCCCCCCCCCCO [1-heptadecanol],58 °C
9,c1ccc(OP(Oc2ccccc2)Oc2ccccc2)cc1 [triphenyl phosphite],23 °C
10,O=C(O)CCc1ccccc1,49 °C
11,ON=Cc1ccc(O)cc1 [p-Hydroxybenzaldehyde oxime],112 °C
12,CO[C@H]1O[C@H](CO)[C@@H](O)[C@H](O)[C@H]1O [methyl alpha-d-glucopyranoside],169 °C
13,C[C@]12CCC(=O)C=C1CC[C@@H]1[C@@H]2[C@@H](O)C[C@@]2(C)[C@H]1CC[C@]2(O)C(=O)CO [Hydrocortisone],220 °C
14,CC=C(C)Br [2-bromo-trans-2-butene],-115 °C
15,C/C(C)=CCC [2-Methylpent-2-ene],-135 °C
16,CCOC(=O)Cc1cc(/C(=N/Nc2ccccc2)C(=O)OCC)c([N+](=O)[O-])cc1[N+](=O)[O-],155 °C
17,O=C1Nc2ccc(Cl)cc2C(c2ccccc2Cl)=NC1O (stereo not given) [Lorazepam],167 °C
18,Oc1cccc2ccc3cccnc3c12 [10-hydroxybenzo[h]quinoline],104 °C
19,O=C(Nc1ccccc1/C=C/c1ccccc1)c1ccccc1 [N-{2-[(E)-2-phenylethenyl]phenyl}benzamide],98 °C
20,Cc1cc(C)nc(NS(=O)(=O)c2ccc(N)cc2)n1 [Sulfamethazine],196 °C

row,Structure (SMILES),melting point
1,CCCCCCCCP(=O)(CCCCCCCC)CCCCCCCC [tri-n-octylphosphine oxide],55 °C
2,"Cc1ccc(N)c(N)c1 [3,4-diaminotoluene]",88 °C
3,OCC(O)c1ccccc1 (stereo not given) [styrene glycol],68 °C
4,O=Cc1ccc(B(O)O)cc1F [3-fluoro-4-formylbenzeneboronic acid],240 °C
5,CCCCCCCc1ccc(O)cc1 [4-n-heptylphenol],27 °C
6,c1ccc2nccnc2c1 [quinoxaline],30 °C
7,"Nc1ccc(NC(=O)c2ccc(N)cc2)cc1 [4,4'-diaminobenzanilide]",201 °C
8,Cc1ccc(-c2ccc(/C=C/C(=O)c3ccco3)o2)cc1,111 °C
9,"Brc1cc(Br)cc(Br)c1 [1,3,5-tribromobenzene]",124 °C (2×) and 122 °C
10,CC(C)(C)NCC(O)COc1cccc2c1CC(O)C(O)C2 (stereo not given),124 °C
11,c1ccc(N2CCNCC2)cc1 [1-phenylpiperazine],18 °C
12,"COC1=C(OC)C(=O)C(C)=CC1=O [2,3-dimethoxy-5-methyl-1,4-benzoquinone]",59 °C
13,"Clc1ccc(-c2ccnc(Cl)c2)cn1 [6,2'-dichloro-3,4'-bipyridine]",222 °C
14,C=CCCCC [Hex-1-ene],-140 °C
15,"CCC1=C(C)N=NC1C (stereo not given) [4-ethyl-3,5-dimethyl-1H-pyrazole]",43 °C
16,[2H]C([2H])([2H])[2H] [(~2~H_4_)Methane],-183 °C
17,"Oc1ccc(-c2ccc(O)cc2)cc1 [4,4'-dihydroxybiphenyl]",282 °C
18,Cc1cc(Br)ccc1N [4-bromo-2-methylaniline],58 °C
19,"CC(O)C(C)O (stereo not given) [2,3-butanediol]",25 °C
20,C=C(C)C(=O)OCCCC [Butyl methacrylate],-50 °C
